According to ChEMBL document CHEMBL1201862, “PubChem BioAssay data set” (2004):
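Values below derive from 48-hour exposures of cells grown in 96-well plates, with endpoints linearly interpolated between the two concentrations bracketing the appropriate inhibition level. GI50 marks 50% less growth.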 Calls of active or inactive are those of the source. Rule as the data show it: active = GI50 up to about 1.1 µM and inactive = higher.

How the values were obtained:
Test in all cases: DTP human tumour cell line panel, 48 h
786-0 = tested on: 786-0
SF-295 = tested on: SF-295
UACC-257 = tested on: UACC-257
LOX IMVI = tested on: LOX IMVI
M14 = tested on: M14
RXF 393 = tested on: RXF 393
A549 = tested on: A549
CAKI-1 = tested on: CAKI-1
HCT-116 = tested on: HCT-116
TK-10 = tested on: TK-10
HL-60 = tested on: HL-60
SF-268 = tested on: SF-268
IGROV-1 = tested on: IGROV-1
NCI-H522 = tested on: NCI-H522
BT-549 = tested on: BT-549
Hs-578T = tested on: Hs-578T
MCF7 = tested on: MCF7
CCRF-CEM = tested on: CCRF-CEM
SK-MEL-28 = tested on: SK-MEL-28
T47D = tested on: T47D
NCI-H23 = tested on: NCI-H23
NCI-H226 = tested on: NCI-H226
SK-MEL-5 = tested on: SK-MEL-5
SW-620 = tested on: SW-620
OVCAR-4 = tested on: OVCAR-4
DU-145 = tested on: DU-145
UO-31 = tested on: UO-31
A498 = tested on: A498
MOLT-4 = tested on: MOLT-4
SNB-19 = tested on: SNB-19
HT-29 = tested on: HT-29
U-251 = tested on: U-251
EKVX = tested on: EKVX
MDA-MB-231 = tested on: MDA-MB-231
SK-OV-3 = tested on: SK-OV-3
OVCAR-5 = tested on: OVCAR-5
MDA-N = tested on: MDA-N
KM12 = tested on: KM12
PC-3 = tested on: PC-3
ACHN = tested on: ACHN
COLO 205 = tested on: COLO 205
OVCAR-8 = tested on: OVCAR-8
SNB-75 = tested on: SNB-75
HCT-15 = tested on: HCT-15
NCI/ADR-RES = tested on: NCI/ADR-RES
HOP-62 = tested on: HOP-62
UACC-62 = tested on: UACC-62
SN12C = tested on: SN12C
Malme-3M = tested on: Malme-3M
MDA-MB-435 = tested on: MDA-MB-435
SF-539 = tested on: SF-539
SK-MEL-2 = tested on: SK-MEL-2
RPMI-8226 = tested on: RPMI-8226
K562 = tested on: K562
NCI-H460 = tested on: NCI-H460
OVCAR-3 = tested on: OVCAR-3
HOP-92 = tested on: HOP-92

COCO[C@@H]1C[C@H]2C(=O)N(COC)c3ccccc3C(=O)N2C1
GI50 (786-0): > 100 µM (inactive) | GI50 (SF-295): > 100 µM (inactive) | GI50 (UACC-257): > 100 µM (inactive) | GI50 (LOX IMVI): > 100 µM (inactive) | GI50 (M14): > 100 µM (inactive) | GI50 (RXF 393): > 100 µM (inactive) | GI50 (A549): > 100 µM (inactive) | GI50 (CAKI-1): > 100 µM (inactive) | GI50 (HCT-116): > 100 µM (inactive) | GI50 (TK-10): > 100 µM (inactive) | GI50 (HL-60): > 100 µM (inactive) | GI50 (SF-268): > 100 µM (inactive) | GI50 (IGROV-1): > 100 µM (inactive) | GI50 (NCI-H522): > 100 µM (inactive) | GI50 (BT-549): > 100 µM (inactive) | GI50 (Hs-578T): > 100 µM (inactive) | GI50 (MCF7): > 100 µM (inactive) | GI50 (CCRF-CEM): > 100 µM (inactive) | GI50 (SK-MEL-28): > 100 µM (inactive) | GI50 (T47D): > 100 µM (inactive) | GI50 (NCI-H23): > 100 µM (inactive) | GI50 (NCI-H226): > 100 µM (inactive) | GI50 (SK-MEL-5): > 100 µM (inactive) | GI50 (SW-620): > 100 µM (inactive) | GI50 (OVCAR-4): > 100 µM (inactive) | GI50 (DU-145): > 100 µM (inactive) | GI50 (UO-31): > 100 µM (inactive) | GI50 (A498): > 100 µM (inactive) | GI50 (MOLT-4): > 100 µM (inactive) | GI50 (SNB-19): > 100 µM (inactive) | GI50 (HT-29): > 100 µM (inactive) | GI50 (U-251): > 100 µM (inactive) | GI50 (EKVX): > 100 µM (inactive) | GI50 (MDA-MB-231): > 100 µM (inactive) | GI50 (SK-OV-3): > 100 µM (inactive) | GI50 (OVCAR-5): > 100 µM (inactive) | GI50 (MDA-N): > 100 µM (inactive) | GI50 (KM12): > 100 µM (inactive) | GI50 (PC-3): > 100 µM (inactive) | GI50 (ACHN): > 100 µM (inactive) | GI50 (COLO 205): > 100 µM (inactive) | GI50 (OVCAR-8): > 100 µM (inactive) | GI50 (SNB-75): > 100 µM (inactive) | GI50 (HCT-15): > 100 µM | GI50 (NCI/ADR-RES): > 100 µM (inactive) | GI50 (HOP-62): > 100 µM (inactive) | GI50 (UACC-62): > 100 µM (inactive) | GI50 (SN12C): > 100 µM (inactive) | GI50 (Malme-3M): > 100 µM (inactive) | GI50 (MDA-MB-435): > 100 µM (inactive) | GI50 (SF-539): > 100 µM (inactive) | GI50 (SK-MEL-2): > 100 µM (inactive)

NC(=O)c1ccc(C(=O)Nc2ccc([As](=O)(O)O)cc2)cc1
GI50 (786-0): > 100 µM (inactive) | GI50 (SF-295): > 100 µM (inactive) | GI50 (LOX IMVI): > 100 µM (inactive) | GI50 (M14): > 100 µM (inactive) | GI50 (RPMI-8226): > 100 µM (inactive) | GI50 (RXF 393): > 100 µM (inactive) | GI50 (K562): > 100 µM (inactive) | GI50 (A549): > 100 µM (inactive) | GI50 (CAKI-1): > 100 µM (inactive) | GI50 (HCT-116): > 100 µM (inactive) | GI50 (TK-10): > 100 µM (inactive) | GI50 (HL-60): > 100 µM (inactive) | GI50 (SF-268): > 100 µM (inactive) | GI50 (IGROV-1): > 100 µM (inactive) | GI50 (NCI-H522): > 100 µM (inactive) | GI50 (NCI-H460): > 100 µM (inactive) | GI50 (BT-549): > 100 µM (inactive) | GI50 (Hs-578T): > 100 µM (inactive) | GI50 (MCF7): > 100 µM (inactive) | GI50 (CCRF-CEM): > 100 µM (inactive) | GI50 (SK-MEL-28): > 100 µM (inactive) | GI50 (T47D): > 100 µM (inactive) | GI50 (NCI-H23): > 100 µM (inactive) | GI50 (NCI-H226): > 100 µM (inactive) | GI50 (SK-MEL-5): > 100 µM (inactive) | GI50 (SW-620): > 100 µM (inactive) | GI50 (OVCAR-4): > 100 µM (inactive) | GI50 (DU-145): > 100 µM (inactive) | GI50 (UO-31): > 100 µM (inactive) | GI50 (A498): > 100 µM (inactive) | GI50 (OVCAR-3): > 100 µM (inactive) | GI50 (MOLT-4): > 100 µM (inactive) | GI50 (SNB-19): > 100 µM (inactive) | GI50 (HT-29): > 100 µM (inactive) | GI50 (U-251): > 100 µM (inactive) | GI50 (EKVX): > 100 µM (inactive) | GI50 (MDA-MB-231): > 100 µM (inactive) | GI50 (SK-OV-3): > 100 µM (inactive) | GI50 (OVCAR-5): > 100 µM (inactive) | GI50 (MDA-N): > 100 µM (inactive) | GI50 (KM12): > 100 µM (inactive) | GI50 (PC-3): > 100 µM (inactive) | GI50 (ACHN): > 100 µM (inactive) | GI50 (COLO 205): > 100 µM (inactive) | GI50 (OVCAR-8): > 100 µM (inactive) | GI50 (SNB-75): > 100 µM (inactive) | GI50 (HCT-15): > 100 µM | GI50 (NCI/ADR-RES): > 100 µM (inactive) | GI50 (HOP-92): > 100 µM (inactive) | GI50 (HOP-62): > 100 µM (inactive) | GI50 (UACC-62): > 100 µM (inactive) | GI50 (SN12C): > 100 µM (inactive) | GI50 (Malme-3M): > 100 µM (inactive) | GI50 (MDA-MB-435): > 100 µM (inactive) | GI50 (SK-MEL-2): > 100 µM (inactive)

C#C[C@]1(O)CC[C@H]2[C@@H]3CCC4=C/C(=N/CCOC(=O)c5cccc6cc7ccccc7nc56)CC[C@@H]4[C@H]3CC[C@@]21C
GI50 (786-0): 34.5 µM (inactive) | GI50 (SF-295): 22.3 µM (inactive) | GI50 (UACC-257): 27.8 µM (inactive) | GI50 (LOX IMVI): 12.3 µM (inactive) | GI50 (M14): 23 µM (inactive) | GI50 (RXF 393): 4.06 µM (inactive) | GI50 (K562): > 100 µM (inactive) | GI50 (A549): 28.4 µM (inactive) | GI50 (CAKI-1): 42.4 µM (inactive) | GI50 (HCT-116): 27.1 µM (inactive) | GI50 (TK-10): 31.5 µM (inactive) | GI50 (HL-60): > 100 µM (inactive) | GI50 (SF-268): 20.6 µM (inactive) | GI50 (IGROV-1): 13.8 µM (inactive) | GI50 (NCI-H522): 17.9 µM (inactive) | GI50 (NCI-H460): 14.9 µM (inactive) | GI50 (BT-549): 24.2 µM (inactive) | GI50 (Hs-578T): 14.3 µM (inactive) | GI50 (MCF7): 17.3 µM (inactive) | GI50 (CCRF-CEM): > 100 µM (inactive) | GI50 (SK-MEL-28): 75.2 µM (inactive) | GI50 (T47D): 16.8 µM (inactive) | GI50 (NCI-H23): 19.9 µM (inactive) | GI50 (NCI-H226): > 100 µM (inactive) | GI50 (SK-MEL-5): 23.7 µM (inactive) | GI50 (SW-620): 57.3 µM (inactive) | GI50 (OVCAR-4): 26 µM (inactive) | GI50 (DU-145): 21 µM (inactive) | GI50 (UO-31): 30.5 µM (inactive) | GI50 (A498): 41 µM (inactive) | GI50 (OVCAR-3): 35.5 µM (inactive) | GI50 (MOLT-4): > 100 µM (inactive) | GI50 (SNB-19): 30.4 µM (inactive) | GI50 (HT-29): 28.4 µM (inactive) | GI50 (U-251): 12.7 µM (inactive) | GI50 (EKVX): 34.8 µM (inactive) | GI50 (MDA-MB-231): 16.4 µM (inactive) | GI50 (SK-OV-3): 64.4 µM (inactive) | GI50 (OVCAR-5): 40.5 µM (inactive) | GI50 (MDA-N): 37.6 µM (inactive) | GI50 (KM12): 20.6 µM (inactive) | GI50 (PC-3): 11.7 µM (inactive) | GI50 (ACHN): 29.2 µM (inactive) | GI50 (COLO 205): 90.6 µM (inactive) | GI50 (OVCAR-8): 10 µM (inactive) | GI50 (HCT-15): 17.5 µM | GI50 (NCI/ADR-RES): 26 µM (inactive) | GI50 (HOP-92): 20.7 µM (inactive) | GI50 (HOP-62): 35.2 µM (inactive) | GI50 (UACC-62): 22 µM (inactive) | GI50 (SN12C): 49.1 µM (inactive) | GI50 (Malme-3M): 27.7 µM (inactive) | GI50 (MDA-MB-435): 27.3 µM (inactive) | GI50 (SK-MEL-2): 21.7 µM (inactive)
